Experimental data: PMC9939733 (The Journal of Biological Chemistry, 2023)
Residue numbers refer to the chain shown, from its start.

Tests used:
Assay type in all cases: biochemical
R132H IDH1 [1] = target: T1, R132H IDH1 (Homo sapiens, UniProt O75874, R132H); test: Absorbance assay (NADPH consumption), substrate turnover in the absence of 2OG; parameters: made in house; host or cells: Escherichia coli BL21(DE3) pLyS
Description: (§1) Compounds were dispensed using a CyBio SDW-CW CyBi-Well Simultaneous Pipettor and assay started using a ThermoFisher Multidrop Combi reagent dispenser.
(§2) Reactions were performed as technical quadruplicates.

R132H IDH1 [2] = target: T1, R132H IDH1; test: Absorbance assay, variant activity in the presence of equimolar 2OG (inhibition screen); parameters: made in house; host or cells: Escherichia coli BL21(DE3) pLyS
Description: as §1, §2

R140Q IDH2 [3] = target: T2, R140Q IDH2 (Homo sapiens, UniProt P48735, R140Q); test: as above
T2 construct: made in house; host or cells: Sf21 insect cells (cell pellets prepared at Evotec)
T2 sequence (P48735 40-452 R140Q): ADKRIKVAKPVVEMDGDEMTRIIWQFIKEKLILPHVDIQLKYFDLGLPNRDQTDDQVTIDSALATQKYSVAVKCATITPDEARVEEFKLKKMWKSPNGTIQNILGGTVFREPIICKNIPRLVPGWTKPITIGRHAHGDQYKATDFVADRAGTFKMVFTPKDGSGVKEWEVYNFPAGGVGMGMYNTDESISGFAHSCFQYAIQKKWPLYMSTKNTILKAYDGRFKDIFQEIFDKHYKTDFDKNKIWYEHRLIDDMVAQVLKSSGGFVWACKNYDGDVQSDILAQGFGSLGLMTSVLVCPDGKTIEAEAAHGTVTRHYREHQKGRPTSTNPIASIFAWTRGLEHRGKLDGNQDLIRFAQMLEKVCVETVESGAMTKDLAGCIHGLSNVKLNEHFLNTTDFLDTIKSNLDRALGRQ
Description: as §1, §2

R172K IDH2 [4] = target: T3, R172K IDH2 (Homo sapiens, UniProt P48735, R172K); test: as above
T3 construct: made in house; host or cells: Sf21 insect cells (cell pellets prepared at Evotec)
T3 sequence (P48735 40-452 R172K): T2 sequence (P48735 40-452 R140Q) with Q101R, R133K
Description: as §1, §2

WT IDH1 [5] = target: T4, WT IDH1 (Homo sapiens, UniProt O75874); test: Absorbance assay, WT activity in the presence of equimolar DL-isocitrate (inhibition)
T4 construct: made in house; host or cells: Escherichia coli BL21(DE3) pLyS
Description: as §1, §2

WT IDH2 [6] = target: T5, WT IDH2 (Homo sapiens, UniProt P48735); test: as above; details: […] isocitrate and […] test compound, 75 μM NADP+, 2.0 nM WT IDH2
T5 construct: made in house; host or cells: Sf21 insect cells (cell pellets prepared at Evotec)
T5 sequence (P48735 40-452): T2 sequence (P48735 40-452 R140Q) with Q101R
Description: as §1, §2

R140Q IDH2 [7] = target: T2, R140Q IDH2; test: Absorbance assay (NADPH consumption), substrate turnover in the absence of 2OG
Description: as §1, §2

R172K IDH2 [8] = target: T3, R172K IDH2; test: as above
Description: as §1, §2

WT IDH1 [9] = target: T4, WT IDH1; test: Absorbance assay, substrate activity in the absence of DL-isocitrate; details: no DL-isocitrate; […] test compound, 75 μM NADP+, 2.0 nM WT IDH1; compared to DL-isocitrate
Description: as §1, §2

WT IDH2 [10] = target: T5, WT IDH2; test: as above; details: no DL-isocitrate; […] test compound, 75 μM NADP+, 2.0 nM WT IDH2; compared to DL-isocitrate
Description: as §1, §2

[11] = no 2OG, […] test compound, 0.03 μM R132H IDH1, 50 μM NADPH, 2OG = 100
[12] = […] 2OG and […] test compound, 0.03 μM R132H IDH1, 50 μM NADPH
[13] = 6.0 mM 2OG and 6.0 mM test compound, 0.03 μM R140Q IDH2, 50 μM NADPH
[14] = 1.0 mM 2OG and 1.0 mM test compound, 0.03 μM R172K IDH2, 50 μM NADPH
[15] = […] isocitrate and […] test compound, 75 μM NADP+, 2.0 nM WT IDH1
[16] = no 2OG, 6.0 mM test compound, 0.03 μM R140Q IDH2, 50 μM NADPH, 2OG = 100
[17] = no 2OG, 1.0 mM test compound, 0.03 μM R172K IDH2, 50 μM NADPH, 2OG = 100

T1 sequence (O75874 whole entry R132H): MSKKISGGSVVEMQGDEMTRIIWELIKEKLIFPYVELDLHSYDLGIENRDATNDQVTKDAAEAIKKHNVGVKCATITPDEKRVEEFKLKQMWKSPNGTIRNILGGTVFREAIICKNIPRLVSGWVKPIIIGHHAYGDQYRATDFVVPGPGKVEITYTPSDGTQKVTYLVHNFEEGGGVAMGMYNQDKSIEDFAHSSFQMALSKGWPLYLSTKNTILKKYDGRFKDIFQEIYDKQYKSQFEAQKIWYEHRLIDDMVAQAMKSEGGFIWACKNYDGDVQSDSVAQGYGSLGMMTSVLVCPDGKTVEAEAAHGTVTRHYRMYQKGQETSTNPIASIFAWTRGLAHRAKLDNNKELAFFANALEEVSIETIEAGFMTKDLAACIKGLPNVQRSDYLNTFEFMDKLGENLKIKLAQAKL
T4 sequence (O75874 whole entry): as the sequence (O75874 whole entry R132H) above, with H132R counted along it

Compound | activity [%] (%-substrate conversion after 20 min incubation) (R132H IDH1 [1]; [11]) | activity [%] (%-substrate conversion after 20 min incubation) (R132H IDH1 [2]; [12]) | activity [%] (%-substrate conversion after 20 min incubation) (R140Q IDH2 [3]; [13]) | activity [%] (%-substrate conversion after 20 min incubation) (R172K IDH2 [4]; [14]) | activity [%] (%-substrate conversion after 20 min incubation) (WT IDH1 [5]; [15]) | activity [%] (%-substrate conversion after 20 min incubation) (WT IDH2 [6]) | activity [%] (%-substrate conversion after 20 min incubation) (R140Q IDH2 [7]; [16]) | activity [%] (%-substrate conversion after 20 min incubation) (R172K IDH2 [8]; [17]) | activity [%] (%-substrate conversion after 20 min incubation) (R140Q IDH2 [7]; no 2OG, 6.0 mM test compound, 0.03 μM R140Q IDH2, 50 μM NADPH, 2OG = 100, listed as DL-4-hydroxy-2OG) | activity [%] (%-substrate conversion after 20 min incubation) (R132H IDH1 [1]) | activity [%] (%-substrate conversion after 20 min incubation) (R132H IDH1 [2]) | activity [%] (%-substrate conversion after 20 min incubation) (R140Q IDH2 [3]) | activity [%] (%-substrate conversion after 20 min incubation) (R172K IDH2 [4]) | activity [%] (%-substrate conversion after 20 min incubation) (R140Q IDH2 [7]) | activity [%] (%-substrate conversion after 20 min incubation) (R172K IDH2 [8]) | activity [%] (%-substrate conversion after 20 min incubation) (WT IDH1 [9]) | activity [%] (%-substrate conversion after 20 min incubation) (WT IDH2 [10]) | activity [%] (%-substrate conversion after 20 min incubation) (WT IDH1 [5])
O=C(O)CCC(O)C(=O)O (racemic) [DL-2-hydroglutaric acid] | < 10 | 89 ± 5 | 98 ± 8 | 95 ± 4 | 94 ± 2 | 95 ± 3 | < 10 | < 10 | – | – | – | – | – | – | – | – | – | –
O=C(O)C(=O)CC(O)C(=O)O (racemic) [DL-4-hydroxy-2-oxoglutaric acid] | < 10 | 82 ± 5 | 124 ± 8 | 98 ± 3 | 89 ± 1 | 87 ± 1 | 27 ± 3 | < 10 | ~20 | – | – | – | – | – | – | – | – | –
COC(=O)CC(C)C(=O)OC (racemic) [DL-dimethyl 2-methylsuccinate] | < 10 | 104 ± 2 | 116 ± 4 | 91 ± 4 | 103 ± 1 | 100 ± 2 | < 10 | < 10 | – | – | – | – | – | – | – | – | – | –
NC(CCC(=O)O)C(=O)O (racemic) [DL-glutamic acid] | < 10 | 83 ± 5 | 94 ± 9 | 93 ± 5 | 94 ± 7 | – | < 10 | < 10 | – | – | – | – | – | – | – | – | – | –
O=C(O)CC(C(=O)O)C(O)C(=O)O (racemic) [DL-isocitric acid] | – | – | – | – | – | – | – | – | – | < 10 | 78 ± 5 | 64 ± 3 | 71 ± 5 | < 10 | < 10 | – | – | –
O=C(O)C(=O)CC(Cc1ccccc1)C(=O)O (racemic) [compound 19] | – | 116 ± 17 | 106 ± 4 | 102 ± 5 | 98±2 | 97±3 | – | – | – | – | – | – | – | – | – | < 10 | < 10 | –
O=C(O)C(=O)CC(Cc1ccc2ccccc2c1)C(=O)O (racemic) [compound 20] | – | 31 ± 2 | 73 ± 4 | 51 ± 1 | 97±3 | 97±4 | – | – | – | – | – | – | – | – | – | < 10 | < 10 | –
O=C(O)C(=O)CCc1ccccc1 [2-oxo-4-phenylbutanoic acid] | < 10 | 90 ± 3 | 98 ± 8 | 96 ± 1 | 94 ± 2 | 96 ± 6 | < 10 | < 10 | – | – | – | – | – | – | – | – | – | –
O=C(O)CCCC(=O)C(=O)O [2-oxoadipic acid] | < 10 | 115 ± 8 | 94 ± 8 | 96 ± 18 | 108 ± 8 | – | < 10 | < 10 | – | – | – | – | – | – | – | – | – | –
O=C(O)CC(=O)CC(=O)O [3-oxoglutaric acid] | < 10 | 95 ± 2 | 109 ± 3 | 100 ± 4 | 103 ± 3 | – | < 10 | < 10 | – | – | – | – | – | – | – | – | – | –
O=C[C@H](O)[C@@H](O)[C@H](O)[C@H](O)C(=O)O [D-glucuronic acid] | < 10 | 104 ± 4 | 112 ± 7 | 101 ± 2 | 106 ± 2 | – | < 10 | < 10 | – | – | – | – | – | – | – | – | – | –
O=C(O)/C=C(/CC(=O)O)C(=O)O [cis-aconitic acid] | – | – | – | – | – | – | – | – | – | < 10 | 100 ± 2 | 119 ± 12 | 99 ± 7 | < 10 | < 10 | – | – | 101 ± 2
O=C(O)C(=O)Cc1c[nH]c2ccccc12 [indole-3-pyruvic acid] | < 10 | 81 ± 6 | – | 87 ± 10 | 88 ± 2 | 89 ± 1 | – | < 10 | – | – | – | – | – | – | – | – | – | –
